Data from article PMC7038073, “Substituted Piperazines as Novel Potential Radioprotective Agents” (Molecules, 2020).
Where “and” joins values, the source holds several entries; their conditions need not be identical. Equal entries are not always repeated.

Key:
[1] = Safe use evaluation in vivo (MTD, symptoms, blood biochemistry, histopathology); set-up: key to piloerection / ataxia / prostration / tremor / excitation / saber-like tail / stooping / hyper/hypoventilation / drop of eyelids / lacrimation / convulsion: + (mild); ++ (moderate); +++ (severe); conditions: both sexes, mouse, in vivo, ip; BALB/c mice, i.p., two males and two females per group; read-out: MTD (maximum tolerated dose)
Text: (§1) Mild to moderate signs of intoxication could be observed once the MTD (maximum tolerated dose) was reached. In vivo, MTD is described as the highest dose of a given compound that can be administered before showing signs of toxicity (based on the same dose regimen or series) and whose excess would be expected to be fatal, yielding unreliable results. Therefore, a staged approach (including core and intermediate dose levels) has become a suitable strategy in this regard.
(§2) The symptoms described in Tables S1 (in Supplementary Materials) and S2 (in Supplementary Materials) diminished spontaneously within 2 h. After observing these symptoms, MTD thresholds were set at 100, 200, 100, 200, 2000, and 650 mg/kg for compounds 4, 5, 6, 7, 8, and 10, respectively. Animals receiving MTD were further examined by necropsy 48 h after administration. Plasma (reflecting biochemical changes in blood), intestine with mesentery (site of administration), and liver and kidney (elimination organs) were collected to evaluate the toxic potential of the tested compounds. For evaluation of the impact of the compounds on organ function, we performed blood biochemistry test 48 h after administration. The test focused on seven important indicators: glucose and amylase for normal function of pancreas, alanine aminotransferase (ALT), aspartate aminotransferase (AST), and alkaline phosphatase (ALP) for the normal function of liver, and urea and creatinine for the normal function of kidneys. […] According to Thoolen et al., focal necrosis can be occasionally seen in untreated rodents and therefore is not pathognomonic of hepatotoxicity, which is consistent with our findings.
(§3) Both male and female BALB/c mice (Velaz s r.o., Prague, Czech Republic) with an average weight of 21 ± 0.8 g and 21 ± 0.8 g, respectively, were selected for the safe use evaluation in vivo. The mice were housed in environmentally controlled breeding units (Faculty of Military Health Sciences vivarium; temperature 21 ± 1 °C, 12/12 h light/dark cycle) with access to food (Cerea corp., Pardubice, Czech Republic) and water ad libitum. The acclimatization period of the mice was at least 10 days before each experiment. All experimental procedures and protocols were reviewed and approved by the Ethics Committee of the Faculty of Military Health Sciences in Hradec Kralove, University of Defence in Brno. Compounds 2, 3, 4, 5, 6, 7, 8, 9, and 10 were dissolved in physiological saline solution (B. Braun Melsungen AG, Melsungen, Germany) and injected intraperitoneally (i.p.) into the corresponding mouse groups, which were composed of two males and two females. Several doses were administered to determine the maximum tolerated dose (MTD), which was assessed by close observation for signs of toxicity within the first two hours after administration of the compounds, and then regularly over the following 48 h. The observed symptoms were registered according to the laboratory Animal Science Association UK guidelines (for a detailed description, see [36]. After 48 h, the surviving animals were euthanized with CO2 and evaluated by basic macroscopic necropsy. Venous blood was collected into heparinized tubes (Scanlab Systems, Prague, Czech Republic) and the plasma was separated in a U-320R centrifuge (Boeco, Hamburg, Germany) to further evaluate the toxic potential of the tested compounds. The concentrations of glucose, urea, and creatinine and the levels of alanine aminotransferase (ALT), aspartate aminotransferase (AST), alkaline phosphatase (ALP), and amylase were evaluated in a qualified biochemical laboratory of the University Hospital Hradec Kralove (Hradec Kralove, Czech Republic). Additionally, intestine, liver, and kidney samples were collected for histopathologic examination. […]

[2] = system: BALB/c mice; experiment: as above; set-up: key to piloerection / ataxia / prostration / tremor / excitation / saber-like tail / stooping / hyper/hypoventilation / drop of eyelids / lacrimation / convulsion: + (mild); ++ (moderate); +++ (severe); conditions: for ALP / ALT / AST / Amylase / Creatinine / Glucose / Urea: plasma 48 h after MTD i.p.
Text: as §1, §2, §3

[3] = WST-1 cytotoxicity test, MCF-7; type: cell-based; conditions: human, MCF-7 cells, 48 h, WST-1, mean ± SD of three experiments, read-out: relative viability (%) compared to untreated control; for viability at 48 h, 10 µM: MCF-7, 10 µM; for viability at 48 h, 100 µM: MCF-7, 100 µM
Protocol: (§4) In this study, the cytotoxic effects of nine new compounds (2, 3, 4, 5, 6, 7, 8, 9, 10) were tested on 10 human cell lines (nine cancer and one non-cancer cell line). The cell lines were treated with each compound at concentrations of 10 µM and 100 µM for 48 h. The proliferation capacity of the treated cells was determined by WST-1 test and compared against the proliferation rate of the untreated control cells (100%).
(§5) The cell lines Jurkat, MOLT-4, A2780, A549, HT-29, PANC-1, HeLa, MCF-7, SAOS-2, and MRC-5 (all purchased from Sigma Aldrich, Czech Republic) were included in this study. All cell lines were maintained according to the provider’s guidelines, and plated and treated in 96-well plates (500 to 30 × 10^3 cells per well). The tested compounds 2, 3, 4, 5, 6, 7, 8, 9, and 10 were dissolved in 0.1% DMSO and kept in 10 mM stock solutions. Before use, the stock solution was diluted in culture media at ratios of 1:100 and 1:1000. The studied cell lines were treated with the compounds 2, 3, 4, 5, 6, 7, 8, 9, and 10 at concentrations of 10 and 100 µM for 48 h. Control cells were tested in culture media with and without DMSO (0.1%). The cells were also treated with 1 µM doxorubicin as a cytotoxicity control.
(§6) The WST-1 (2-(4-iodophenyl)-3-(4-nitrophenyl)-5-(2,4-disulfophenyl)-2H-tetrazolium, monosodium salt) test (Roche, Mannheim, Germany) was used according to the manufacturer’s protocol to determine cell viability in all 10 cell lines 48 h after treatment with the tested compounds. The cells were analyzed in a Tecan Infinite M200 spectrometer (Tecan Group, Männedorf, Switzerland) at 440 nm.

[4] = WST-1 cytotoxicity test, A549; type: cell-based; conditions: human, A549 cells, 48 h, WST-1, mean ± SD of three experiments, read-out: relative viability (%) compared to untreated control; for viability at 48 h, 10 µM: A549, 10 µM; for viability at 48 h, 100 µM: A549, 100 µM
Protocol: as §4, §5, §6

[5] = female BALB/c mice, animals 1 and 2
[6] = female mice, at MTD i.p., animals 1 and 2
[7] = male BALB/c mice, animals 1 and 2
[8] = male mice, at MTD i.p., animals 1 and 2

| SMILES | MTD at 48 h [1] [mg/kg] | ALT [2, 5] | AST [2, 5] | Amylase [2, 5] | Glucose [2, 5] | Urea [2, 5] | drop of eyelids [2, 6] | ALP [2, 7] | ALT [2, 7] | AST [2, 7] | Amylase [2, 7] | Creatinine [2, 7] | Glucose [2, 7] | Urea [2, 7] | hyper/hypoventilation [2, 8] | prostration [2, 8] | viability at 48 h, 10 µM [3] [%] | viability at 48 h, 100 µM [3] [%] | viability at 48 h, 10 µM [4] [%] | viability at 48 h, 100 µM [4] [%] | further results |
| --- | --- | --- | --- | --- | --- | --- | --- | --- | --- | --- | --- | --- | --- | --- | --- | --- | --- | --- | --- | --- | --- |
| Cc1cc(OCC(O)CN2CCN(CCO)CC2)ccc1Cl.Cl.Cl (centres unmarked) [Compound 4, 1-(4-chloro-3-methylphenoxy)-3-(4-(2-hydroxyethyl)piperazin-1-yl)propan-2-ol dihydrochloride] | 100 | 28 U/L | 93 U/L and 61 U/L | 2632 U/L and 2216 U/L | 237 mg/dL and 228 mg/dL | 65 mg/dL and 38 mg/dL | + | 77 U/L and 63 U/L | 41 U/L and 43 U/L | 124 U/L and 121 U/L | 1905 U/L and 2464 U/L | 79 µg/dL and 45 µg/dL | 226 mg/dL and 227 mg/dL | 39 mg/dL and 53 mg/dL | + | + | 105 ± 4 | 90 ± 3 | 100 ± 4 | 99 | histopathological change: focal necrosis ([2]; at MTD i.p., necropsy 48 h after administration, one animal each): one small focus; ALP [2, 5]: 83 U/L and 76 U/L; Creatinine [2, 5]: 78 µg/dL and 79 µg/dL; prostration [2, 6]: +; weight at 24 h (%) [2, 6]: -5.7% and -4.1%; weight at 48 h (%) [2, 6]: -7.3% and -7.9%; weight at 24 h (%) [2, 8]: -2.6% and -3.0%; weight at 48 h (%) [2, 8]: -4.6% and -3.7% |
| Cl.Cl.Cl.OCCN1CCN(CCCNc2ccccc2)CC1 [Compound 5, 2-(4-(3-(phenylamino)propyl)piperazin-1-yl)ethanol trihydrochloride] | 200 | 29 U/L and 22 U/L | 65 U/L and 44 U/L | 2531 U/L and 2489 U/L | 187 mg/dL and 192 mg/dL | 65 mg/dL and 58 mg/dL | + | 37 U/L and 38 U/L | 28 U/L and 29 U/L | 58 U/L and 59 U/L | 1757 U/L and 2008 U/L | 23 µg/dL and 21 µg/dL | 185 mg/dL and 175 mg/dL | 31 mg/dL and 33 mg/dL | ++ | ++ | 101 ± 6 | 106 ± 1 | 86 ± 7 | 104 ± 8 | ALP [2, 5]: 88 U/L and 80 U/L; ataxia [2, 6]: +; hyper/hypoventilation [2, 6]: ++; tremor [2, 6]: +; ataxia [2, 8]: ++ and +; drop of eyelids [2, 8]: +; lacrimation [2, 8]: +; saber-like tail [2, 8]: +; tremor [2, 8]: ++ |
| Cl.Cl.Cl.OCCN1CCN(CCCNc2cccc3ccccc23)CC1 [Compound 6, 2-(4-(3-(naphthalen-1-ylamino)propyl)piperazin-1-yl)ethanol trihydrochloride] | 100 | 29 U/L and 27 U/L | 53 U/L and 50 U/L | 2922 U/L and 2835 U/L | 199 mg/dL and 212 mg/dL | 65 mg/dL and 55 mg/dL | + | 38 U/L and 36 U/L | 28 U/L and 25 U/L | 64 U/L and 62 U/L | 2124 U/L and 2086 U/L | 45 µg/dL and 23 µg/dL | 130 mg/dL and 177 mg/dL | 42 mg/dL and 35 mg/dL | ++ | + | 102 ± 8 | 94 ± 9 | 103 ± 7 | 93 ± 3 | ALP [2, 5]: 86 U/L and 95 U/L; Creatinine [2, 5]: 22 µg/dL and 34 µg/dL; ataxia [2, 6]: ++; hyper/hypoventilation [2, 6]: ++; prostration [2, 6]: +; stooping [2, 6]: ++; ataxia [2, 8]: +; drop of eyelids [2, 8]: +; piloerection [2, 8]: +; stooping [2, 8]: ++; tremor [2, 8]: +; weight at 48 h (%) [2, 8]: -2.3% and -3.0% |
| COc1ccc(NCCCN2CCN(CCO)CC2)cc1.Cl.Cl.Cl [Compound 7, 2-(4-(3-((4-methoxyphenyl)amino)propyl)piperazin-1-yl)ethanol trihydrochloride] | 200 | 22 U/L and 33 U/L | 52 U/L and 71 U/L | 2501 U/L and 1496 U/L | 241 mg/dL and 178 mg/dL | 40 mg/dL | + | 78 U/L and 55 U/L | 19 U/L and 29 U/L | 48 U/L and 66 U/L | 2272 U/L and 1858 U/L | 23 µg/dL and 34 µg/dL | 244 mg/dL and 194 mg/dL | 35 mg/dL and 38 mg/dL | ++ | ++ | 105 ± 6 | 104 ± 6 | 95 ± 5 | 115 | hyper/hypoventilation [2, 6]: ++; prostration [2, 6]: +; tremor [2, 6]: ++; drop of eyelids [2, 8]: +; tremor [2, 8]: ++; weight at 24 h (%) [2, 8]: -0.3% and -1.5%; weight at 48 h (%) [2, 8]: 0.0% and -3.7% |
